Drawing on patent EP1065215A1 (Boehringer Ingelheim International GmbH, priority 1999, dated 2001), this text covers Hill slope and Ki for two molecules.

What all share (test): Displacement of [3H]AMPA binding on membranes of transfected HEK293 cells
Common to all, as to details: mean ± S.E.; for Hill slope: displacement of [3H]AMPA binding, Prism software
Background: Loss of bound radioactivity is the signal in a displacement assay; it reports binding, not function.

Experiment [1] has as its target T1, GluR1 (1-24) (Homo sapiens, UniProt P42261).
T1 construct: expressed in transfected cells; host or cells: HEK293, plasmid pHGluR1/pcDNA3
As for the experimental part: (§1) In order to examine the pharmacological identity of the stably expressed recombinant receptors, competitive binding studies were performed.
(§2) The binding studies were carried out as outlined previously (Keinänen et al., 1990; Fletcher et al., 1995). […] The pellets were resuspended in 50 mM Tris-HCl (pH 7.5) and repeated the homogenization and centrifugation. […] The cell membranes were incubated with the radioligand for 60 minutes on ice, and subsequently collected by rapid filtration through GF/C filters. […] The filters were washed rapidly with cold assay buffer. The radioactivity retained in the filters was measured by liquid scintillation counting.

For experiment [2], the target named is T2, GluR4 (4-19) (Homo sapiens, UniProt P48058).
T2 construct: expressed in transfected cells; host or cells: HEK293, plasmid pHGluR4/pcDNA3
T2 sequence (P48058 21-902): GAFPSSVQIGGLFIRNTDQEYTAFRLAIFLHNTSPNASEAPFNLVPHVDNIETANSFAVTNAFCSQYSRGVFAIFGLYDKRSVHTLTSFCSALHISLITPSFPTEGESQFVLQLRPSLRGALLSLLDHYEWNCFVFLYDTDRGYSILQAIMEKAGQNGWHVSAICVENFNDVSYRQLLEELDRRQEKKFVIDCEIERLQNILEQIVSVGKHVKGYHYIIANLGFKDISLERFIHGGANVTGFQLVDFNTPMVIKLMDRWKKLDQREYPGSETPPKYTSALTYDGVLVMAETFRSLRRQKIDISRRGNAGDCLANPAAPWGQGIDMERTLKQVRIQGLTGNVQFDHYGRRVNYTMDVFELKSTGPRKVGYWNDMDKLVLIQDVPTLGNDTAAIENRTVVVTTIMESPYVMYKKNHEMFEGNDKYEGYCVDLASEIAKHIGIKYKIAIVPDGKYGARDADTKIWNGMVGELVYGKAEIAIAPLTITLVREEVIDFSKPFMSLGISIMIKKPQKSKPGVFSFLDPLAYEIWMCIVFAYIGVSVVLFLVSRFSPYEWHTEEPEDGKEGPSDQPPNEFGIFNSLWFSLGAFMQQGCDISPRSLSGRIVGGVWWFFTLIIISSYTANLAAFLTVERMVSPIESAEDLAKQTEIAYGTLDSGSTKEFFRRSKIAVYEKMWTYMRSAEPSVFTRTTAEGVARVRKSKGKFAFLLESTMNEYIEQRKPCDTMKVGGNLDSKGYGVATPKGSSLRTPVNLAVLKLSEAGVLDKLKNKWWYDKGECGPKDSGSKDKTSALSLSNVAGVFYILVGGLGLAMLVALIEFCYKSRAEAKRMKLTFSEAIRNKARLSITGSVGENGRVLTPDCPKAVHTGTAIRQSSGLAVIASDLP
As for the experimental part:
as §1, §2

The target of experiment [3] is T3, GluR3 (5-42) (Homo sapiens, UniProt P42263).
T3 construct: expressed in transfected cells; host or cells: HEK293, plasmid pHGluR3/pcDNA3
T3 sequence (P42263 29-894 isoform P42263-2 limits assumed): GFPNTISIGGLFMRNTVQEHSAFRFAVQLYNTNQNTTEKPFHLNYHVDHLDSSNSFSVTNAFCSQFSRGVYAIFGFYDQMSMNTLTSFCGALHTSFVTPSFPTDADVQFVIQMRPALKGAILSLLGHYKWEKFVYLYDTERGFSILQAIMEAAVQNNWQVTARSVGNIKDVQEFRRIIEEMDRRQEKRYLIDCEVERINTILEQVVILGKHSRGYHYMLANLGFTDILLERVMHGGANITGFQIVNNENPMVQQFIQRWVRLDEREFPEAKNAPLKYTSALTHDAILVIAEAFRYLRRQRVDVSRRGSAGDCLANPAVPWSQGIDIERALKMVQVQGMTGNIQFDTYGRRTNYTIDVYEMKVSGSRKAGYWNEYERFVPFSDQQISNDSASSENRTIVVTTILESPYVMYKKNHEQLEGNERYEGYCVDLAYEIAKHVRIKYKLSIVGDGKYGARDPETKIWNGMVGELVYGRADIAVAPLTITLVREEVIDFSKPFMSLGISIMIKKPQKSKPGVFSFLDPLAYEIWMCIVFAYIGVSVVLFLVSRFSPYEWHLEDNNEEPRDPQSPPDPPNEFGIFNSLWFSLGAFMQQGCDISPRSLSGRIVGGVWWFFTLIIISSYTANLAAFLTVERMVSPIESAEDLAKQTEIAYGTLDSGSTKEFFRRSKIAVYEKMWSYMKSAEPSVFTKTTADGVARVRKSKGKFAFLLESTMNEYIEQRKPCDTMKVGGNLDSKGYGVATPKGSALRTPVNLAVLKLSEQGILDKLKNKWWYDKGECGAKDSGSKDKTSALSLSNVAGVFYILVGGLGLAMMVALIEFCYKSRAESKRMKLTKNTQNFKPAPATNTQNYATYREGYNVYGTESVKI
The procedure:
as §1, §2

The mark [4] stands for this setting: displacement of [3H]AMPA, Cheng-Prusoff equation, 0.1 M KSCN, on ice.

T1 sequence (P42261 19-906 isoform P42261-2 limits assumed): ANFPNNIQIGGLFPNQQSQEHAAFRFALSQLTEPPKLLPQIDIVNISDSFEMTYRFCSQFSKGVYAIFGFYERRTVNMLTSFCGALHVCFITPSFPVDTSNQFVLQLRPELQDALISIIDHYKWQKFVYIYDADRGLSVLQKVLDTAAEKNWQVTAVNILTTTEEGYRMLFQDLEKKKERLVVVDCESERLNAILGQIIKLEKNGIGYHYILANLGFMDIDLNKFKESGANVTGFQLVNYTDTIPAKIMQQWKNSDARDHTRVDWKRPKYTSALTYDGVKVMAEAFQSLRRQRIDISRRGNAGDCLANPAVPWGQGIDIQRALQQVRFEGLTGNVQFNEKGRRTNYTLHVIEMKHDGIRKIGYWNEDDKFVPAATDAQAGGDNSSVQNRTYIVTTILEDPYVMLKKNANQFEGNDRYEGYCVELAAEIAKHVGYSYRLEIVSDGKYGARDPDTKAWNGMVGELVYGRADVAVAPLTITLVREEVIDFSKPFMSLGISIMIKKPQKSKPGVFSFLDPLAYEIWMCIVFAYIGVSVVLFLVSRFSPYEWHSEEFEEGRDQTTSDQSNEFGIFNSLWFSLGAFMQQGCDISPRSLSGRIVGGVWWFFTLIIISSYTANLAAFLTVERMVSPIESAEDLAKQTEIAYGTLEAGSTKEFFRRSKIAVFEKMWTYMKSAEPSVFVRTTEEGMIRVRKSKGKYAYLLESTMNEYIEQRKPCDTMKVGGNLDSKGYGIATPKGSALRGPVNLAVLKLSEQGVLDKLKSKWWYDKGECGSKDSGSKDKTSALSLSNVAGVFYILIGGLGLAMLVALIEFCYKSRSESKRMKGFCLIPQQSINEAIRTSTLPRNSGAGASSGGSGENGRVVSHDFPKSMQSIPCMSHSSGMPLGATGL

For `N#Cc1cc2[nH]c(=O)c(=O)[nH]c2cc1[N+](=O)[O-]` [CNQX], the Hill slope in experiment [1] is reported as -1.00 ± 0.06; in experiment [2] it was -0.86 ± 0.06; in experiment [3], -0.83 ± 0.06.

`CN1Cc2c(S(=O)(=O)N(C)C)cc3c(c2C1)NC(=O)C3=NO` [NS257]: the Hill slope in experiment [1] is given as -0.85 ± 0.08; in experiment [2], -0.83 ± 0.03; in experiment [3], -1.01 ± 0.22. The Ki in experiment [1] (setting [4]) is 1970 ± 148 nM; in experiment [2] (setting [4]), 1050 ± 78 nM; in experiment [3] (setting [4]) it was 967 ± 124 nM.

For orientation: Hill slope means the slope factor of the fitted curve. By Ki is commonly meant the dissociation constant of the complex between target and ligand, obtained from inhibition or displacement. A lower Ki goes with tighter binding.
